Four compounds from patent US12391737B2, “Soluble NPY2 receptor agonists” (Boehringer Ingelheim International GmbH, priority 2020, dated 2025) can be followed below.

Data set [1] addresses T1, Human Neuropeptide Y2 Receptor (Homo sapiens, UniProt P49146).
T1 construct: purchased CHEMICON HTS066M
T1 sequence (P49146 1-381): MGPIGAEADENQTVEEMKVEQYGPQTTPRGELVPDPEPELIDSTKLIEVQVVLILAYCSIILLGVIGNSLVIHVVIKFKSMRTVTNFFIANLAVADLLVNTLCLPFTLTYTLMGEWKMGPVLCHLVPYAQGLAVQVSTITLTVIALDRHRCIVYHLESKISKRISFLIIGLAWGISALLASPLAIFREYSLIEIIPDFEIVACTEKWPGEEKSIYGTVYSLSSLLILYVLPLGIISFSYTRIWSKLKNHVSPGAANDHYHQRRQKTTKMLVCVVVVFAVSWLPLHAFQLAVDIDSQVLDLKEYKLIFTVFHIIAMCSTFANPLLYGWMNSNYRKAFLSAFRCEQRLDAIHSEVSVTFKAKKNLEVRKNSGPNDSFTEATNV
Nature of the data set: Radioligand binding competition assay (RLB). The conditions noted are these: Table 3, 125I-PYY(1-36) competition; read-out: Ki. The procedure, abridged:
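Filtration competition binding on membranes from cells expressing the receptor, 0.5 μg protein/well, in 50 mM HEPES, 5 mM MgCl2, 1 mM CaCl2, pH 7.4, with 0.2% ovalbumin. Incubation ran 2 h at room temperature, followed by GF/C filtration and scintillation counting. IC50 came from nonlinear sigmoidal fits.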

Data set [2] has as its target T2, human NPY1 receptor (hY1R) (Homo sapiens, UniProt P25929).
T2 construct: expressed in transfected cells; host or cells: CHO-K1
T2 sequence (P25929 1-384): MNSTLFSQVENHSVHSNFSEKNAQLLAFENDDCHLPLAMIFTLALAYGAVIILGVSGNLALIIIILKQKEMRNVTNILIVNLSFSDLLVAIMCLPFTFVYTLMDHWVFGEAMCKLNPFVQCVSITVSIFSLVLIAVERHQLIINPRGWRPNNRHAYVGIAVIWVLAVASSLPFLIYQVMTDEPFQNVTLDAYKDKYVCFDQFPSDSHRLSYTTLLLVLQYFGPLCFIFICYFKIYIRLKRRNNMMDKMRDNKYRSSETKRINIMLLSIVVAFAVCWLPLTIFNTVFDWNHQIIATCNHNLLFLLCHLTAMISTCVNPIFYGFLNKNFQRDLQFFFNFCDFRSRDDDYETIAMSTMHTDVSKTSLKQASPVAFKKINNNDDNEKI
Nature of the data set: HTRF cAMP Gi assay, hY1R. It counts as cell-based. The conditions noted are these: CHO-K1 cells. On the technique in general: TR-FRET usually uses a lanthanide donor and a delayed reading to cut background.
Protocol: (§1) Briefly, the production of intracellular cAMP will generate a competition between unlabeled cAMP and exogenously added d2-cAMP for anti-cAMP antibodies conjugated to cryptate. CHO-K1 cells stably expressing the human NPY1, NPY2, NPY4 and NPY5 receptors were used with the cells brought to life from a frozen stock immediately before assay performance. 2000 cells per well were applied for all four NPY receptor subtype assays. A 384-well format was used applying a total volume of 20 μl using 5 μl cells, 2.5 μl peptide agonist, 2.5 μl forskolin and 5 μl of each of the fluorophores. […] Concentration-response evaluation of compounds was performed with 11 concentrations of agonist peptides (covering 3 decades). EC50 values were calculated by nonlinear regression using sigmoid concentration-response with variable slope.

Data set [3] concerns the target T3, human NPY4 receptor (hY4R) (Homo sapiens, UniProt P50391).
T3 construct: expressed in transfected cells; host or cells: CHO-K1
Nature of the data set: HTRF cAMP Gi assay, hY4R. The class given is cell-based. Conditions: CHO-K1 cells.
Protocol: as §1

Data set [4] in a line: Solubility determination. Conditions: for Sol6: pH 6; for Sol7: pH 7. The procedure, abridged:
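Solubility is derived from the ratio of reversed-phase peak areas, filtered sample over a control dissolved at 1 mg/ml in 50% acetonitrile. Peptides are agitated for 2 hours at room temperature in 0.1 M sodium diphosphate at pH 6.4 or 7.0, aiming at 10 mg/ml.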

For data set [5], the target named is T4, human NPY5 receptor (hY5R) (Homo sapiens, UniProt Q15761).
T4 sequence (Q15761 1-445): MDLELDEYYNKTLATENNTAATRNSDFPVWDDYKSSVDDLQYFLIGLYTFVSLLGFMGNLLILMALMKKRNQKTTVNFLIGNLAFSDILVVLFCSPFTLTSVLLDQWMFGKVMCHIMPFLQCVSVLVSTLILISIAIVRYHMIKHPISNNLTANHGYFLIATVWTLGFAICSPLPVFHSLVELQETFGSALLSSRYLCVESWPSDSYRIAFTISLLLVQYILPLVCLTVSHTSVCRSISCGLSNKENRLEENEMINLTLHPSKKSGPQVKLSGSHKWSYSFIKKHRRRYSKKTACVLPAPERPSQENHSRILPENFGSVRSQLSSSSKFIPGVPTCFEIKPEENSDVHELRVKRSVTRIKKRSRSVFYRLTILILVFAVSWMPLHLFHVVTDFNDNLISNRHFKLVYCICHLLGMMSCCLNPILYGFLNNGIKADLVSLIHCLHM
The data set is described as follows: HTRF cAMP Gi assay, hY5R.

pEC50, pKi: −log10 of the molar value. *1 amine or outer side, *2 acyl side, *3 side chain or, on linkers, in order; H or OH if unused. Where a SMILES comes first, the peptide text is derived from it. Side-chain parts run from the residue outwards. The star is where a group is joined. C18 diacid = O=C(O)CCCCCCCCCCCCCCCCC(=O)*; γGlu = O=C(O)[C@H](CCC(=O)[*:2])N[*:1]; Isovaleryl = CC(C)CC(=O)*; Ahx = NCCCCCC(=O)O

T3 sequence (P50391 whole entry): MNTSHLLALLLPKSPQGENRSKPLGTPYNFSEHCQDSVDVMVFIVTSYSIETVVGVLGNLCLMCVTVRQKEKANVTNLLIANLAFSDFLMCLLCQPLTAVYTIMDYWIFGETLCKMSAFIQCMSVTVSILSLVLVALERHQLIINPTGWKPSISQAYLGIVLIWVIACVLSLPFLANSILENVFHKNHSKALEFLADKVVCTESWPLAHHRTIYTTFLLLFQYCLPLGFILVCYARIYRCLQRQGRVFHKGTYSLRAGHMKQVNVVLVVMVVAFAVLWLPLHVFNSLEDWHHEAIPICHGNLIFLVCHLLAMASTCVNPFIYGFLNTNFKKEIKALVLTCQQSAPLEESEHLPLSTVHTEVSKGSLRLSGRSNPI

By pKi is commonly meant the negative decadic logarithm of the Ki, by convention in mol/L. By pEC50 is commonly meant the negative decadic logarithm of the EC50, by convention in mol/L. A low value points to a high EC50. For the compound `CC[C@H](C)[C@H](NC(=O)[C@H](CCC(=O)O)NC(=O)[C@H](CCC(=O)O)NC(=O)[C@@H]1CCCN1C(=O)[C@H](CO)NC(=O)[C@H](C)NC(=O)[C@H](C)NC(=O)[C@H](CCC(=O)O)NC(=O)[C@H](CCC(=O)O)NC(=O)[C@@H]1CCCN1C(=O)[C@H](CCCCNC(=O)CCCCCNC(=O)CC[C@H](NC(=O)CCCCCCCCCCCCCCCCC(=O)O)C(=O)O)NC(=O)[C@H](CCC(=O)O)NC(=O)[C@@H]1CCCN1C(=O)[C@H](C)NC(=O)CC(C)C)C(=O)N[C@@H](CCC(N)=O)C(=O)N[C@@H](CCCNC(=N)N)C(=O)N[C@@H](Cc1ccc(O)cc1)C(=O)N[C@@H](Cc1ccc(O)cc1)C(=O)N[C@H](C(=O)N[C@@H](CO)C(=O)N[C@@H](CC(C)C)C(=O)N[C@@H](CCCNC(=N)N)C(=O)N[C@@H](Cc1c[nH]cn1)C(=O)N[C@@H](Cc1ccc(O)cc1)C(=O)N[C@@H](Cc1ccc(O)cc1)C(=O)N[C@@H](CC(N)=O)C(=O)N[C@@H](Cc1c[nH]c2ccccc12)C(=O)N[C@@H](CC(C)C)C(=O)N[C@H](C(=O)N[C@@H](CCCNC(=N)N)C(=O)N[C@@H](CCC(N)=O)C(=O)N[C@@H](CCCNC(=N)N)C(=O)N[C@@H](Cc1ccc(O)cc1)C(N)=O)[C@@H](C)O)C(C)C` [Compound 150, N{alpha-4}-(3-methylbutanoyl)-N{epsilon-7}-(6-[(4S)-4-carboxy-4-(17-carboxyheptadecanamido)butanamido]hexanoyl)-[4A,7K,9E,11A,17I,18Q,22V,28Y,30W,31L]-hPYY(4-36)], in data set [1], the negative logarithm of the Ki (pKi) was 8.66. Also, the negative-log EC50 (pEC50) in data set [2], in data set [3] and in data set [5] was less than 5.30 throughout. The “Sol6” value in data set [4] was 9.7 mg/mL. In data set [4], the “Sol7” value was 10.0 mg/mL.

For `CC[C@H](C)[C@H](NC(=O)[C@H](Cc1ccc(O)cc1)NC(=O)[C@H](Cc1ccc(O)cc1)NC(=O)[C@H](CCCNC(=N)N)NC(=O)[C@H](CCC(N)=O)NC(=O)[C@@H](NC(=O)[C@H](CCC(=O)O)NC(=O)[C@H](CCC(=O)O)NC(=O)[C@@H]1CCCN1C(=O)[C@H](CO)NC(=O)[C@H](C)NC(=O)[C@H](CC(=O)O)NC(=O)[C@H](C)NC(=O)[C@H](CCC(=O)O)NC(=O)[C@@H]1CCCN1C(=O)[C@H](CCCCNC(=O)CCCCCNC(=O)CC[C@H](NC(=O)CCCCCCCCCCCCCCCCC(=O)O)C(=O)O)NC(=O)[C@H](CCC(=O)O)NC(=O)[C@@H]1CCCN1C(=O)[C@H](C)NC(=O)CC(C)C)[C@@H](C)CC)C(=O)N[C@@H](CO)C(=O)N[C@@H](CC(C)C)C(=O)N[C@@H](CCCNC(=N)N)C(=O)N[C@@H](Cc1c[nH]cn1)C(=O)N[C@@H](Cc1ccc(O)cc1)C(=O)N[C@@H](Cc1ccc(O)cc1)C(=O)N[C@@H](CC(N)=O)C(=O)N[C@@H](Cc1c[nH]c2ccccc12)C(=O)N[C@@H](CC(C)C)C(=O)N[C@H](C(=O)N[C@@H](CCCNC(=N)N)C(=O)N[C@@H](CCC(N)=O)C(=O)N[C@@H](CCCNC(=N)N)C(=O)N[C@@H](Cc1ccc(O)cc1)C(N)=O)[C@@H](C)O` [Compound 11, N{alpha-4}-(3-methylbutanoyl)-N{epsilon-7}-(6-[(4S)-4-carboxy-4-(17-carboxyheptadecanamido)butanamido]hexanoyl)[4A,7K,9E,10A,17I,18Q,22I,28Y,30W,31L]-hPYY(4-36)] (Isovaleryl-APEK([Ahx-γGlu-C18 diacid])PEADASPEEIQRYYISLRHYYNWLTRQRY-NH2), in data set [1], the negative logarithm of the Ki (pKi) was 8.85. In addition, the pEC50 in data set [2], in data set [3] and in data set [5] was less than 5.30 each time. Moreover, the “Sol6” value in data set [4] is 8.9 mg/mL. Also, the “Sol7” value in data set [4] came out at 8.7 mg/mL.

Consider `CC[C@H](C)[C@H](NC(=O)[C@H](CCC(=O)O)NC(=O)[C@H](CCC(=O)O)NC(=O)[C@@H]1CCCN1C(=O)[C@@H](NC(=O)[C@H](C)NC(=O)[C@H](CC(=O)O)NC(=O)[C@H](C)NC(=O)[C@H](CCC(=O)O)NC(=O)[C@@H]1CCCN1C(=O)[C@H](CCCCNC(=O)CCCCCNC(=O)CC[C@H](NC(=O)CCCCCCCCCCCCCCCCC(=O)O)C(=O)O)NC(=O)[C@H](CCC(=O)O)NC(=O)[C@@H]1CCCN1C(=O)[C@H](C)NC(=O)CC(C)C)[C@@H](C)O)C(=O)N[C@@H](CCC(N)=O)C(=O)N[C@@H](CCCNC(=N)N)C(=O)N[C@@H](Cc1ccc(O)cc1)C(=O)N[C@@H](Cc1ccc(O)cc1)C(=O)N[C@H](C(=O)N[C@@H](C)C(=O)N[C@@H](CC(C)C)C(=O)N[C@@H](CCCNC(=N)N)C(=O)N[C@@H](Cc1c[nH]cn1)C(=O)N[C@@H](Cc1ccc(O)cc1)C(=O)N[C@@H](Cc1ccc(O)cc1)C(=O)N[C@@H](CC(N)=O)C(=O)N[C@@H](Cc1c[nH]c2ccccc12)C(=O)N[C@@H](CC(C)C)C(=O)N[C@H](C(=O)N[C@@H](CCCNC(=N)N)C(=O)N[C@@H](CCC(N)=O)C(=O)N[C@@H](CCCNC(=N)N)C(=O)N[C@@H](Cc1ccc(O)cc1)C(N)=O)[C@@H](C)O)C(C)C` [Compound 184, N{alpha-4}-(3-methylbutanoyl)-N{epsilon-7}-(6-[(4S)-4-carboxy-4-(17-carboxyheptadecanamido)butanamido]hexanoyl)-[4A,7K,9E,10A,13T,17I,18Q,22V,23A,28Y,30W,31L]-hPYY(4-36)], for which the negative logarithm of the Ki (pKi) in data set [1] is 9.19. Further, the negative-log EC50 (pEC50) in data set [2], in data set [3] and in data set [5] was less than 5.30 throughout. The “Sol6” value in data set [4] came to 9.1 mg/mL. In data set [4], the “Sol7” value stood at 9.1 mg/mL.

On to `CC[C@H](C)[C@H](NC(=O)[C@H](CCC(=O)O)NC(=O)[C@H](CCC(=O)O)NC(=O)[C@@H]1CCCN1C(=O)[C@H](CO)NC(=O)[C@H](C)NC(=O)[C@H](CCC(=O)O)NC(=O)[C@H](CCC(=O)O)NC(=O)[C@H](CCC(=O)O)NC(=O)[C@@H]1CCCN1C(=O)[C@H](CCCCNC(=O)CCCCCNC(=O)CC[C@H](NC(=O)CCCCCCCCCCCCCCCCC(=O)O)C(=O)O)NC(=O)[C@H](CCC(=O)O)NC(=O)[C@@H]1CCCN1C(=O)[C@H](C)NC(=O)CC(C)C)C(=O)N[C@@H](CCC(N)=O)C(=O)N[C@@H](CCCNC(=N)N)C(=O)N[C@@H](Cc1ccc(O)cc1)C(=O)N[C@@H](Cc1ccc(O)cc1)C(=O)N[C@H](C(=O)N[C@@H](CO)C(=O)N[C@@H](CC(C)C)C(=O)N[C@@H](CCCNC(=N)N)C(=O)N[C@@H](Cc1c[nH]cn1)C(=O)N[C@@H](Cc1ccc(O)cc1)C(=O)N[C@@H](Cc1ccc(O)cc1)C(=O)N[C@@H](CC(N)=O)C(=O)N[C@@H](Cc1c[nH]c2ccccc12)C(=O)N[C@@H](CC(C)C)C(=O)N[C@H](C(=O)N[C@@H](CCCNC(=N)N)C(=O)N[C@@H](CCC(N)=O)C(=O)N[C@@H](CCCNC(=N)N)C(=O)N[C@@H](Cc1ccc(O)cc1)C(N)=O)[C@@H](C)O)C(C)C` [Compound 193, N{alpha-4}-(3-methylbutanoyl)-N{epsilon-7}-(6-[(4S)-4-carboxy-4-(17-carboxyheptadecanamido)butanamido]hexanoyl)-[4A,7K,9E,11E,17I,18Q,22V,28Y,30W,31L]-hPYY(4-36)], for which, in data set [1], the negative-log Ki (pKi) is 8.47. The pEC50 in data set [2], in data set [3] and in data set [5] was less than 5.30 in each case. Moreover, the “Sol6” value in data set [4] turned out to be 8.9 mg/mL. In data set [4], the “Sol7” value was determined as 9.1 mg/mL.
